Assay results published in ChEMBL document CHEMBL1201862, “PubChem BioAssay data set” (2004).
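Briefly, cells in 96-well plates were exposed to five compound concentrations for 48 h, and endpoints were estimated by linear interpolation. GI50: concentration for 50% inhibition of growth.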 Calls of active or inactive are those of the source. Cut-off read from the data, not from the text of the source: active = GI50 up to about 1.1 µM and inactive = higher.

How the values were obtained:
Experiment in all cases: growth of human tumour cells (NCI), 48 h
786-0 = test system: 786-0
A498 = test system: A498
A549 = test system: A549
ACHN = test system: ACHN
CAKI-1 = test system: CAKI-1
CCRF-CEM = test system: CCRF-CEM
COLO 205 = test system: COLO 205
DLD-1 = test system: DLD-1
DMS-114 = test system: DMS-114
HCC 2998 = test system: HCC 2998
HCT-116 = test system: HCT-116
HCT-15 = test system: HCT-15
HL-60 = test system: HL-60
HOP-18 = test system: HOP-18
HOP-62 = test system: HOP-62
HOP-92 = test system: HOP-92
HT-29 = test system: HT-29
K562 = test system: K562
KM-20L2 = test system: KM-20L2
KM12 = test system: KM12
LOX IMVI = test system: LOX IMVI
LXFL 529 = test system: LXFL 529
M14 = test system: M14
M19-MEL = test system: M19-MEL
MOLT-4 = test system: MOLT-4
Malme-3M = test system: Malme-3M
NCI-H23 = test system: NCI-H23
NCI-H460 = test system: NCI-H460
OVCAR-5 = test system: OVCAR-5
OVCAR-8 = test system: OVCAR-8
RXF 631 = test system: RXF 631
SF-268 = test system: SF-268
SF-295 = test system: SF-295
SF-539 = test system: SF-539
SK-MEL-28 = test system: SK-MEL-28
SK-MEL-2 = test system: SK-MEL-2
SN12C = test system: SN12C
SNB-19 = test system: SNB-19
SNB-75 = test system: SNB-75
SNB-78 = test system: SNB-78
SR = test system: SR
SW-620 = test system: SW-620
TK-10 = test system: TK-10
U-251 = test system: U-251
UACC-257 = test system: UACC-257
UO-31 = test system: UO-31
XF498 = test system: XF498
BT-549 = test system: BT-549
DMS-273 = test system: DMS-273
DU-145 = test system: DU-145
EKVX = test system: EKVX
Hs-578T = test system: Hs-578T
IGROV-1 = test system: IGROV-1
MCF7 = test system: MCF7
MDA-MB-231 = test system: MDA-MB-231
MDA-MB-435 = test system: MDA-MB-435
MDA-N = test system: MDA-N
NCI-H226 = test system: NCI-H226
NCI-H522 = test system: NCI-H522
NCI/ADR-RES = test system: NCI/ADR-RES
OVCAR-3 = test system: OVCAR-3
OVCAR-4 = test system: OVCAR-4
PC-3 = test system: PC-3
RPMI-8226 = test system: RPMI-8226
RXF 393 = test system: RXF 393
SK-MEL-5 = test system: SK-MEL-5
SK-OV-3 = test system: SK-OV-3
T47D = test system: T47D
UACC-62 = test system: UACC-62

O=C1C2C3C=C4c5ccccc5N(c5ccccc5)C4(C2C(=O)N1Cc1ccccc1)C1C(=O)N(Cc2ccccc2)C(=O)C31 (stereo not given)
GI50 (786-0): > 100 µM (inactive)
GI50 (A498): > 100 µM (inactive)
GI50 (A549): > 100 µM (inactive)
GI50 (ACHN): > 100 µM (inactive)
GI50 (CAKI-1): > 10 µM (inactive)
GI50 (CCRF-CEM): > 100 µM (inactive)
GI50 (COLO 205): > 100 µM (inactive)
GI50 (DLD-1): > 100 µM (inactive)
GI50 (DMS-114): > 100 µM (inactive)
GI50 (HCC 2998): > 100 µM (inactive)
GI50 (HCT-116): > 100 µM (inactive)
GI50 (HCT-15): > 100 µM
GI50 (HL-60): > 100 µM (inactive)
GI50 (HOP-18): > 100 µM (inactive)
GI50 (HOP-62): > 10 µM (inactive)
GI50 (HOP-92): 39.5 µM (inactive)
GI50 (HT-29): > 100 µM (inactive)
GI50 (K562): > 100 µM (inactive)
GI50 (KM-20L2): > 100 µM (inactive)
GI50 (KM12): > 100 µM (inactive)
GI50 (LOX IMVI): 78.9 µM (inactive)
GI50 (LXFL 529): > 100 µM (inactive)
GI50 (M14): > 10 µM (inactive)
GI50 (M19-MEL): 70.3 µM (inactive)
GI50 (MOLT-4): > 100 µM (inactive)
GI50 (Malme-3M): > 100 µM (inactive)
GI50 (NCI-H23): > 100 µM (inactive)
GI50 (NCI-H460): > 100 µM (inactive)
GI50 (OVCAR-5): > 100 µM (inactive)
GI50 (OVCAR-8): 39.4 µM (inactive)
GI50 (RXF 631): > 100 µM (inactive)
GI50 (SF-268): > 100 µM (inactive)
GI50 (SF-295): 64 µM (inactive)
GI50 (SF-539): > 100 µM (inactive)
GI50 (SK-MEL-28): > 100 µM (inactive)
GI50 (SK-MEL-2): > 100 µM (inactive)
GI50 (SN12C): > 100 µM (inactive)
GI50 (SNB-19): > 100 µM (inactive)
GI50 (SNB-75): 16.1 µM (inactive)
GI50 (SNB-78): > 100 µM (inactive)
GI50 (SR): > 100 µM (inactive)
GI50 (SW-620): > 100 µM (inactive)
GI50 (TK-10): > 100 µM (inactive)
GI50 (U-251): > 100 µM (inactive)
GI50 (UACC-257): > 100 µM (inactive)
GI50 (UO-31): > 100 µM (inactive)
GI50 (XF498): 96.2 µM (inactive)

CC(=O)Oc1ccc(C(c2ccc(OC(C)=O)cc2)c2ccccn2)cc1 [BISACODYL]
GI50 (786-0): > 91.6 µM (inactive)
GI50 (A498): 59 µM (inactive)
GI50 (A549): 91.4 µM (inactive)
GI50 (ACHN): 78.7 µM (inactive)
GI50 (BT-549): 0.0843 µM (active)
GI50 (CAKI-1): > 100 µM (inactive)
GI50 (CCRF-CEM): 71.1 µM (inactive)
GI50 (COLO 205): 0.406 µM (active)
GI50 (DLD-1): 7.11 µM (inactive)
GI50 (DMS-114): 0.57 µM (active)
GI50 (DMS-273): > 100 µM (inactive)
GI50 (DU-145): > 84.3 µM (inactive)
GI50 (EKVX): 18.8 µM (inactive)
GI50 (HCC 2998): 2.9 µM (inactive)
GI50 (HCT-116): 70.6 µM (inactive)
GI50 (HCT-15): 39.7 µM
GI50 (HL-60): 36.2 µM (inactive)
GI50 (HOP-18): > 47 µM (inactive)
GI50 (HOP-62): > 92.7 µM (inactive)
GI50 (HOP-92): 36.8 µM (inactive)
GI50 (HT-29): > 93.5 µM (inactive)
GI50 (Hs-578T): 0.232 µM (active)
GI50 (IGROV-1): 71.6 µM (inactive)
GI50 (K562): 59.4 µM (inactive)
GI50 (KM-20L2): 54.2 µM (inactive)
GI50 (KM12): 70.3 µM (inactive)
GI50 (LOX IMVI): 29.2 µM (inactive)
GI50 (LXFL 529): 28.8 µM (inactive)
GI50 (M14): > 93.5 µM (inactive)
GI50 (M19-MEL): 97.5 µM (inactive)
GI50 (MCF7): 0.378 µM (active)
GI50 (MDA-MB-231): 54.7 µM (inactive)
GI50 (MDA-MB-435): 76.4 µM (inactive)
GI50 (MDA-N): > 87.9 µM (inactive)
GI50 (MOLT-4): 57 µM (inactive)
GI50 (Malme-3M): 78.5 µM (inactive)
GI50 (NCI-H226): 87.3 µM (inactive)
GI50 (NCI-H23): 3.83 µM (inactive)
GI50 (NCI-H460): 99.1 µM (inactive)
GI50 (NCI-H522): 76.7 µM (inactive)
GI50 (NCI/ADR-RES): 1.32 µM (inactive)
GI50 (OVCAR-3): 0.219 µM (active)
GI50 (OVCAR-4): 0.146 µM (active)
GI50 (OVCAR-5): 22.1 µM (inactive)
GI50 (OVCAR-8): 1.4 µM (inactive)
GI50 (PC-3): 26.5 µM (inactive)
GI50 (RPMI-8226): 65.3 µM (inactive)
GI50 (RXF 393): 13.8 µM (inactive)
GI50 (RXF 631): > 100 µM (inactive)
GI50 (SF-268): > 100 µM (inactive)
GI50 (SF-295): 64.3 µM (inactive)
GI50 (SF-539): > 91.2 µM (inactive)
GI50 (SK-MEL-28): > 100 µM (inactive)
GI50 (SK-MEL-2): 98.6 µM (inactive)
GI50 (SK-MEL-5): 68.4 µM (inactive)
GI50 (SK-OV-3): 59.4 µM (inactive)
GI50 (SN12C): 7.16 µM (inactive)
GI50 (SNB-19): > 100 µM (inactive)
GI50 (SNB-75): 28.5 µM (inactive)
GI50 (SR): 64.4 µM (inactive)
GI50 (SW-620): > 100 µM (inactive)
GI50 (T47D): 0.228 µM (active)
GI50 (TK-10): 81.3 µM (inactive)
GI50 (U-251): > 97.5 µM (inactive)
GI50 (UACC-257): > 87.3 µM (inactive)
GI50 (UACC-62): 47.5 µM (inactive)
GI50 (UO-31): 69.7 µM (inactive)
GI50 (XF498): 40.1 µM (inactive)
